Measurements: US6500843B2, “Inhibitors of rotamase enzyme activity” (GPI NIL Holdings, Inc., priority 1995, dated 2002)
Where two headings read alike, the source gives them in different places.

How the values were obtained:
[1] = target: rotamase activity of FKBP-12 (Homo sapiens, UniProt P62942); assay: Rotamase inhibition (FKBP-12); format: biochemical
[2] = tested on: chick dorsal root ganglion explant cultures; assay: Neurite outgrowth in chick dorsal root ganglion explant cultures; format: cell-based; details: for EC50: Gallus gallus
calcineurin = assay: Calcineurin inhibition; format: biochemical; details: YES/NO
recombinant FKBP-12 = recombinant FKBP-12 (Homo sapiens, UniProt P62942); assay: Inhibition of 3H-FK506 binding to recombinant FKBP-12; details: read-out: [3H]-FK506-FKBP12 (IC50)
Sequence of recombinant FKBP-12 (P62942 whole entry, species assumed): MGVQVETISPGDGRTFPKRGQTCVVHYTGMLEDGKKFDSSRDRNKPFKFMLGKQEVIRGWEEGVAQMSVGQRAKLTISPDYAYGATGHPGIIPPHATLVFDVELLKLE

PC-12 cells = assay: Neurite outgrowth in PC-12 cells in the presence of NGF; details: for Concentration for maximal effects on neurite extension: 4 days; for EC50: Rattus norvegicus
FKBP = FKBP (Rattus norvegicus, UniProt Q62658); assay: [3H]FK506 binding to PC-12 cell homogenates; details: untreated PC-12 cell homogenates, 250 pM radioligand
Sequence of FKBP (Q62658 whole entry): as the sequence (P62942 whole entry, species assumed) above, with P10S, M50T, T76I counted along it

dorsal root ganglia = assay: Neurite outgrowth in rat embryonic day 16 dorsal root ganglia explants; format: cell-based; details: no added NGF
Experimental: Stage E16 embryos were removed from pregnant Sprague-Dawley rats and the dorsal root ganglia dissected. Whole ganglia explants were cultured in collagen-coated 35 mm dishes (Falcon) using N2 medium (Dulbecco's Modified Eagle medium and Ham's F12 medium mixed 1:1 and supplemented with progesterone, selenium, insulin, putrescine, glucose, and penicillin-streptomycin) at 37° C. in a 15% CO2 environment. […] Ganglia were observed every 2-3 days under phase-contrasting using an Olympus IMT-2 inverted microscope, and measurements of axon length were made. The axonal field of each ganglion was divided into four quadrants, and the length of the longest axons in each quadrant was measured in microns using an eye-piece micrometer. The average of these measurements was taken as the axon length for the ganglion.

[3] = tested on: Sprague-Dawley rats, sciatic nerve crush; assay: Sciatic nerve axotomy (crush) model of nerve regeneration; format: in vivo, rat
Experimental: Six-week old male Sprague-Dawley rats were anesthetized, and the sciatic nerve exposed and crushed, at the level of the hip, by forceps. Test compounds or vehicle were administered subcutaneously just prior to the lesion and daily for the following 18 days. Sections of the sciatic nerve were stained with Holmes silver stain to quantify the number of axons, and Luxol fast blue to quantify the level of myelination. Eighteen days after lesion, there was a significant decrease in the number of axons (50% decrease as compared to non-lesioned control) and degree of myelination (90% decrease as compared to non-lesioned control) in animal treated with vehicle.

[4] = Table I, read-out: Rotamase Inhibition Ki
[5] = Neuron, Table I, cultured sensory neurons, read-out: Neutrophic ED50 Chick DRGs
[6] = PC-12, 96 h, read-out: Half-maximal stimulation of neurite extension
[7] = 0.1 ng/ml NGF, 48 hr, read-out: EC50 for stimulating nerve outgrowth in the ganglia
[8] = 30 mg/kg s.c. daily, 18 days after lesion
[9] = s.c. daily for 18 days following the lesion

Sequence of rotamase activity of FKBP-12 (P62942 whole entry): as the sequence (P62942 whole entry, species assumed) above

| Compound | Ki [1, 4] [nM] | EC50 [2, 5] [nM] | other results |
| --- | --- | --- | --- |
| COC1CC2CCC(C)C(O)(O2)C(=O)C(=O)N2CCCCC2C(=O)OC(C(C)CC2CCC(O)C(OC)C2)CC(=O)C(C)C=C(C)C(O)C(OC)C(=O)C(C)CC(C)C2C=CC(C=C1C)n1c(=O)n(-c3ccccc3)c(=O)n12 (stereo not shown) [WAY-124466] |  |  | Calcineurin Inhibition (calcineurin): fails to inhibit calcineurin; Ki ([1]; Table 2, read-out: Rotamase (Ki)): 12 nM; IC50 (recombinant FKBP-12; Table 2): 10 nM; Concentration for maximal effects on neurite extension (PC-12 cells; 0.5 ng/ml NGF): 100-1,000 nM; EC50 (PC-12 cells; [6]): ~10 nM; Potentiation of neurite extension elicited by NGF (PC-12 cells; picomolar concentrations, 0.5 ng/ml NGF, 4 days (FIG. 15)): potentiate neurite extension; Potentiation of NGF-dependent neurite production in sensory ganglia ([2]; 100 nM, plus or minus 0.1 ng/ml NGF, 48 hrs (FIG. 18)): potentiate NGF-dependent neurite production |
| CCC(C)(C)C(=O)C(=O)N1CCCC[C@H]1C(=O)OCCCc1cc(OC)ccc1OC [Example 102] | 12 | 205 | Neurite outgrowth in photomicrographs ([2]; 1 pM, 100 pM and 100 nM (FIGS. 19-21)): promoting neurite outgrowth |
| CC1(C)COC(=O)CCCCCCCCCOC(=O)[C@@H]2CCCCN2C(=O)C1=O [Example 19] | 12 | 0.017 |  |
| C=CC[C@@H]1/C=C(\C)C[C@H](C)C[C@H](OC)[C@H]2O[C@@](O)(C(=O)C(=O)N3CCCC[C@H]3C(=O)O[C@H](/C(C)=C/[C@@H]3CC[C@@H](O)[C@H](OC)C3)[C@H](C)[C@@H](O)CC1=O)[C@H](C)C[C@@H]2OC [FK506] |  |  | Maximal enhancement of neurite outgrowth (PC-12 cells; 0.5 ng/ml NGF, 100 nM drug, 96 hours): 2.5 fold; Concentration for maximal effects on neurite extension (PC-12 cells; 0.5 ng/ml NGF): 5 to 100 nM; Concentration eliciting the same maximal outgrowth observed with 50 ng/ml NGF (PC-12 cells; 1 ng/ml NGF, 48 hr): 1 nM; Reduction of the NGF concentration needed to elicit maximal outgrowth (PC-12 cells; FK506 100 nM, 48 hr): 20-50 fold; EC50 (PC-12 cells; PC-12, 48 h, read-out: Half maximal effects on neurite outgrowth): ~0.1 nM; EC50 (PC-12 cells; [6]): 0.5 nM; EC50 (PC-12 cells; PC-12, read-out: Neurite Outgrowth (ED50)): 0.5 nM; IC50 (FKBP): 1 to 2 nM; Concentration producing a noticeable increase in growth (dorsal root ganglia): 1 nM; Concentration producing detectable augmentation of neurite outgrowth (dorsal root ganglia): 1 pM; Concentration required for maximal outgrowth (dorsal root ganglia): 1 pM; EC50 [2, 7]: 1 to 2 nM |
| CCC(C)(C)C(=O)C(=O)N1CCCC[C@H]1C(=O)OCCCc1ccc2c(c1)OCO2 [Example 103] | 120 | 3 |  |
| CO[C@H]1C[C@@H]2CC[C@@H](C)[C@@](O)(O2)C(=O)C(=O)N2CCCC[C@H]2C(=O)O[C@H]([C@H](C)C[C@@H]2CC[C@@H](O)[C@H](OC)C2)CC(=O)[C@H](C)/C=C(\C)[C@@H](O)[C@@H](OC)C(=O)[C@H](C)C[C@H](C)/C=C/C=C/C=C/1C [Rapamycin] |  |  | Concentration for maximal effects on neurite extension (PC-12 cells; 0.5 ng/ml NGF): 10 to 100 nM; Stimulation of neurite outgrowth (PC-12 cells; 0.1-0.5 ng/ml NGF, 100 nM drug, 96 hours): 3-4 fold; EC50 (PC-12 cells; [6]): 0.2 to 0.4 nM; EC50 [2, 7]: 1 nM |
| CCC(C)(C)C(=O)C(=O)N1CCCC[C@H]1C(=O)OCCCCc1ccc(OC)cc1 [Example 100] | 60 |  |  |
| CCC(C)(C)C(=O)C(=O)N1CCCC[C@H]1C(=O)OC(CCCCc1ccccc1)c1ccccc1 (stereo partly shown) [Example 104] | 20 |  |  |
| COc1ccc(CCCCOC(=O)[C@@H]2CCCCN2C(=O)Cc2cc(OC)c(OC)c(OC)c2)cc1 [Example 6] | 140 | 25 |  |
| NGF: nerve growth factor |  |  | NGF concentration for maximal augmentation of neurite outgrowth (PC-12 cells; 48 hr): 50 to 100 ng/mL; NGF concentration for half maximal outgrowth in the presence of FK506 (PC-12 cells; FK506 100 nM, 48 hr): 0.1 ng/mL; Neurite extension as % of maximal effects evident at 50 ng/ml NGF (PC-12 cells; NGF alone at 0.1 ng/ml): about 15% |
| CCOC(=O)C1CCCCN1C(=O)C(=O)C(C)(C)CC (stereo not shown) [Example 41] | 1300 |  |  |
| CCC(C)(C)C(=O)C(=O)N1CCCCC1C(=O)OCCCc1cc(OC)c(OC)c(OC)c1 (stereo not shown) [Example 13] | 25 |  | IC50 (recombinant FKBP-12; Table 3): 4000 nM; Axon Number (% Control) [3, 8]: 100 % Control; Myelin Level [3, 8]: 50; Decrease in axon number as compared to non-lesioned control [3, 9]: 5%; Decrease in degree of myelination as compared to control [3, 9]: 50% |
| CCC(C)(C)C(=O)C(=O)N1CCCC[C@H]1C(=O)OCCCc1cc(OC)ccc1OC [Example 93] | 75 |  |  |
| CCOC(=O)C1CCCCN1C(=O)C(C)=O (stereo not shown) [Example 36] | > 10000 |  |  |
| CCOC(=O)C1CCCCN1C(=O)C(=O)c1ccccc1 (stereo not shown) [Example 50] | > 10000 |  |  |
| CCC(C)(C)C(=O)C(=O)N1CCCC[C@H]1C(=O)OCCCc1ccc2c(c1)OCO2 [Example 94] | 70 |  |  |
| COc1ccc(CCCCOC(=O)[C@@H]2CCCCN2C(=O)C(=O)c2cc(OC)c(OC)c(OC)c2)cc1 [Example 9] |  | 0.03 |  |
| CCC(C)(C)C(=O)C(=O)N1CCCC[C@H]1C(=O)OC(CCCc1ccccc1)CCCc1ccccc1 [Example 99] |  | 5 |  |

More lines, main results first:

| Ki [1, 4] [nM] | Compound | EC50 [2, 5] [nM] | other results |
| --- | --- | --- | --- |
| 210 | O=C(C(=O)N1CCCC[C@H]1C(=O)OCCCc1ccccc1)C1CCCCC1 [Example 107] | 0.82 |  |
| 1800 | CCC(C)(C)C(=O)C(=O)N1CCCCC1C(=O)OCC=Cc1ccc(Cl)c(Cl)c1 (stereo not shown) [Example 90] | 2500 |  |
| 39 | CCC(C)(C)C(=O)C(=O)N1CCCCC1C(=O)OCC=Cc1ccccc1 (stereo not shown) [Example 92] | 90 |  |
| 130 | CCC(C)(C)C(=O)C(=O)N1CCCC[C@H]1C(=O)OCCCc1cccnc1 [Example 98] | 75 |  |
| 760 | O=C(C(=O)N1CCCC[C@H]1C(=O)OCCCC1CCCCC1)C1CCCCC1 [Example 106] | 1 |  |
| 165 | COc1ccc(CCCCOC(=O)[C@@H]2CCCCN2C(=O)C(=O)c2ccccc2)cc1 [Example 95] |  |  |
| 103 | COc1ccc(CCCCOC(=O)[C@@H]2CCCCN2C(=O)C(=O)C2CCCCC2)cc1 [Example 105] |  |  |
| 740 | O=C(C(=O)N1CCCC[C@H]1C(=O)OCCCc1ccccc1)c1ccccc1 [Example 96] |  |  |
| 28 | CCC(C)(C)C(=O)C(=O)N1CCCCC1C(=O)OCC=Cc1cc(OC)c(OC)c(OC)c1 (stereo not shown) [Example 91] | 200 |  |
| 15 | CCC(C)(C)C(=O)C(=O)N1CCCCC1C(=O)OC(CCCc1ccccc1)CCc1ccc(OC)cc1 (stereo not shown) [Example 101] | 0.17 |  |
